Entries after “also recorded” stand apart in the source; their conditions may differ.
Key:
S. aureus ATCC 25923 = conditions: cited from earlier work
MC3T3-E1 cells [1] = test: Metabolic activity of pre-osteoblasts (resazurin) in presence of released vancomycin; type: cell-based, mouse
Method: (§1) The pre-osteoblasts MC3T3-E1 cells, an osteoblastic cell line derived from mouse calvaria, were grown in alpha minimum essential medium (α-MEM, Gibco, Life Technologies, Grand Island, N.Y.), supplemented with 1% penicillinstreptomycin (Gibco) and 10% fetal bovine serum (FBS, Invitrogen, Carlsbad, Calif.). Cells were incubated in a humidified environment at 37° C. and 5% of CO2. Vancomycin adsorption on granules was performed as mentioned earlier. Granules were placed in 96-well plates, and cells were seeded using a density of 5×10^4 cells/mL. Cells were cultured for 21 days, and medium was changed three times a week. As control, cells were cultured on tissue culture polystyrene (TCPS) with the same conditions used for the granules. For each condition, six replicates were used for the resazurin assay.
In an embodiment, the metabolic activity was also performed. The nontoxic alamar blue (resazurin) dye was used to determine the metabolic activity of MC3T3-E1 cells. The blue nonfluorescent dye is metabolized by cells, converting it to a reduced pink fluorescence dye. Therefore, 10% (v/v) of resazurin was added to the medium and incubated for 4 h at 37° C. and 5% of CO2. Afterward, 100 μL was transferred into a black 96-well plate, and fluorescence was measured at 530 nm excitation and 590 nm emission wavelength with a fluorescence reader (SynergyMix, BioTek, Winooski, Vt.) using Gen5 1.09 Data Analysis Software. These measurements were made at 24 h and 4, 7, 14, and 21 days of culture.

MC3T3-E1 cells [2] = test: Cell morphology on granules by SEM and confocal laser scanning microscopy; type: cell-based, mouse; conditions: in presence of vancomycin
Method: as §1
Granules with seeded cells were rinsed with PBS and fixer using 1.5% gluteraldehyde (v/v) (Agar) in 0.14 M sodium cacodyl-ate buffer (Merck, Kenilworth, N.J.) at RT for 30 min. The samples were washed twice with PBS and then dehydrated in graded series of ethanol. Hexamethyldisilazane (Sigma) was added, and the samples were dried overnight at RT. Granules were visualized on SEM as previously described.
Confocal laser scanning microscopy. Granules with seeded cells were fixed using 4% paraformaldehyde for 15 min and then washed twice with PBS. Triton X-100 0.1% was used, for 5 min, to permeabilize the cells, and the cells were then incubated in 1% bovine serum albumin at 37° C. for 30 min. After incubation, the staining of the F-actin filaments was performed using Alexa Fluor 594 Phalloidin (1:100, Molecular Probes A12379, Invitrogen) in 1% bovine serum albumin at RT for 20 min in dark. The samples were then washed twice with PBS. Cell nuclei were stained with a solution of Hoechst dye (1:1000, Sigma) in PBS at RT for 15 min in dark. Finally, the samples were washed twice with PBS, and one drop of Vectashield was added. The images were acquired with a Leica SP5 Confocal microscope, using a […] oil immersion objective. […]

CN[C@H](CC(C)C)C(=O)N[C@H]1C(=O)N[C@@H](CC(N)=O)C(=O)N[C@H]2C(=O)N[C@H]3C(=O)N[C@H](C(=O)N[C@H](C(=O)O)c4cc(O)cc(O)c4-c4cc3ccc4O)[C@H](O)c3ccc(c(Cl)c3)Oc3cc2cc(c3O[C@@H]2O[C@H](CO)[C@@H](O)[C@H](O)[C@H]2O[C@H]2C[C@](C)(N)[C@H](O)[C@H](C)O2)Oc2ccc(cc2Cl)[C@H]1O [vancomycin]
vancomycin minimum inhibitory concentration (MIC) (S. aureus ATCC 25923): 1 µg/mL
viability of osteoblast cells in presence of vancomycin (MC3T3-E1 cells [1]; vancomycin released from heparinized granules, after 14 days of culture): cells were able to remain viable; also recorded: did not affect the viability of MC3T3-E1 cells
metabolic activity of MC3T3-E1 cells versus without vancomycin (MC3T3-E1 cells [1]; vancomycin released from heparinized nanoHA/collagen granules, 24 h of culture): no difference in the metabolic activity
metabolic activity of MC3T3-E1 cells (MC3T3-E1 cells [1]; vancomycin released from heparinized nanoHA/collagen granules, after 14 days up to 21 days of culture): increased their metabolic activity
metabolic activity of MC3T3-E1 cells (MC3T3-E1 cells [1]; vancomycin released from heparinized nanoHA/collagen granules, until 7 days of culture): decrease in metabolic activity
MC3T3-E1 cell morphology (confocal microscopy) (MC3T3-E1 cells [2]; 24 h and 4 days): more rounded morphology
MC3T3-E1 cell morphology (confocal microscopy) (MC3T3-E1 cells [2]; after 7 days): started to elongate on the surface of the material
MC3T3-E1 cell morphology (confocal microscopy) (MC3T3-E1 cells [2]; after 14 days): well spread, covering the entire surface

Source: patent US20170042936A1, “COMPOSITION FOR LOCAL AND CONTROLLED RELEASE OF DRUGS AND METHODS THEREOF” (INEB - INSTITUTO NACIONAL DE ENGENHARIA BIOMÉDICA, priority 2014, published 2017)
